# Source: ChEMBL document CHEMBL5291721, “A preclinical secondary pharmacology resource illuminates target-adverse drug reaction associations of marketed drugs” (Nat Commun, 2023)
# Experiments:
# [1] = target: Sodium-dependent noradrenaline transporter (Homo sapiens, UniProt P23975)
# [2] = target: Glutamate receptor ionotropic, NMDA 1 (Rattus norvegicus, UniProt P35439)
# Thromboxane A2 receptor = target: T1, Thromboxane A2 receptor (Homo sapiens, UniProt P21731)
# T1 sequence (P21731 whole entry): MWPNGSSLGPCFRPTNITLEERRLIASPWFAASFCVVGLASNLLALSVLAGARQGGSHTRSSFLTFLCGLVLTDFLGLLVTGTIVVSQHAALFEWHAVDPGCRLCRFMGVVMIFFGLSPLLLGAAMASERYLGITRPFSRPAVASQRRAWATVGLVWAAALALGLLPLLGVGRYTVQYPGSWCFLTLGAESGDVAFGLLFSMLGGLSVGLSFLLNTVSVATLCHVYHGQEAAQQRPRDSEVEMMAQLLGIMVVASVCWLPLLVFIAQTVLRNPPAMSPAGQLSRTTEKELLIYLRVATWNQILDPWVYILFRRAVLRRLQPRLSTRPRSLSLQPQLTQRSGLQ
# Progesterone receptor = target: T2, Progesterone receptor (Homo sapiens, UniProt P06401); assay type: functional
# T2 sequence (P06401 whole entry): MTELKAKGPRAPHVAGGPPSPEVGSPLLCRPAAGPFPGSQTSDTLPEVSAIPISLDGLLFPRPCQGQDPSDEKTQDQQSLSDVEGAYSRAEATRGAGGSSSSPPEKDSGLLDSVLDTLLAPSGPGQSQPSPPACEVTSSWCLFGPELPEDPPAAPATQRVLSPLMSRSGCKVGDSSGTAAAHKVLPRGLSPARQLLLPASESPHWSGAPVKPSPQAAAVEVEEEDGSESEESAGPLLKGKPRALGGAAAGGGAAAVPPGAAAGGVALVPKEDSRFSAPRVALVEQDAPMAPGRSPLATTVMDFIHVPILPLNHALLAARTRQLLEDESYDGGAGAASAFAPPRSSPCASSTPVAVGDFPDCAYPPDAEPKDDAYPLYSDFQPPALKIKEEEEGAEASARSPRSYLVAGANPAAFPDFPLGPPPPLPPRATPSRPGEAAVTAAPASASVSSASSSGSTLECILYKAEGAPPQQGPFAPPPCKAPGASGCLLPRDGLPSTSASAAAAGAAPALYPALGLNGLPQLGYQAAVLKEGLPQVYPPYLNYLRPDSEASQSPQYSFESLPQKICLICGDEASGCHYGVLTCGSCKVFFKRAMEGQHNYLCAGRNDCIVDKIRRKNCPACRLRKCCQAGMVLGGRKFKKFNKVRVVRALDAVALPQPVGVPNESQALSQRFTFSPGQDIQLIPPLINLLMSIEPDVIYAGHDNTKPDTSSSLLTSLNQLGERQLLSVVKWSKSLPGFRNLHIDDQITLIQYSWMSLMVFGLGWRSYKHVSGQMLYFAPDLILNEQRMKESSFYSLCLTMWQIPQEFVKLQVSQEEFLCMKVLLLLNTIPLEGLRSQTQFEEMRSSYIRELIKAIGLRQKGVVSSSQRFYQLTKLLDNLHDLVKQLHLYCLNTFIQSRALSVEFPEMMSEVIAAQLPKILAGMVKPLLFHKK
# D(1A) dopamine receptor = D(1A) dopamine receptor (Homo sapiens, UniProt P21728); assay type: functional, cell-based
# Chain of D(1A) dopamine receptor (P21728 whole entry): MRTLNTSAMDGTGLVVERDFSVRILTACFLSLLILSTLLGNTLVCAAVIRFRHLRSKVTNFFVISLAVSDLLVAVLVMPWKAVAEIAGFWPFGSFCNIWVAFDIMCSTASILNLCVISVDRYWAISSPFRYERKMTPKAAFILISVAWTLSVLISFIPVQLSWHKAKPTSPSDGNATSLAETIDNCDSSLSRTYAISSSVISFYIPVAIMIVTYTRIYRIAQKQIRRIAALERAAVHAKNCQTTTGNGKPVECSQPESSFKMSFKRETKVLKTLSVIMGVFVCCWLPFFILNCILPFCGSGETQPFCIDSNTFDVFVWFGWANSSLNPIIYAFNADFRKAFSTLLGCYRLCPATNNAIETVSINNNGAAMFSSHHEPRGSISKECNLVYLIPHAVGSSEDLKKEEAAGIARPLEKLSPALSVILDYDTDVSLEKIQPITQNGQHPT
# [3] = target: Gamma-aminobutyric acid receptor subunit alpha-1 (Rattus norvegicus, UniProt P62813); assay type: functional
# Chain of Gamma-aminobutyric acid receptor subunit alpha-1 (P62813 whole entry): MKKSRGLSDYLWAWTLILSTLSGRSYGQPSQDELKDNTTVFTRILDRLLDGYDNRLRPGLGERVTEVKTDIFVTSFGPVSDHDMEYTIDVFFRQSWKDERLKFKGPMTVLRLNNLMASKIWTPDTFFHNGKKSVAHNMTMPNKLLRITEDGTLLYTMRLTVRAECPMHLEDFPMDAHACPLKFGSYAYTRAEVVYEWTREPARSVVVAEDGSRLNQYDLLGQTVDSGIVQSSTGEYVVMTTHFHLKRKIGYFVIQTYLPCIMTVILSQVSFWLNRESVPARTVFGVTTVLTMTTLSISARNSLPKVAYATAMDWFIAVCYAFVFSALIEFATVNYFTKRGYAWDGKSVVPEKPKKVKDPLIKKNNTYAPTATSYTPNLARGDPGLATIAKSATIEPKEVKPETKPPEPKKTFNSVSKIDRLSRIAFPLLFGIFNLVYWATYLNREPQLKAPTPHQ
# [4] = target: T3, Alpha-2A adrenergic receptor (Homo sapiens, UniProt P08913); assay type: functional, cell-based
# T3 sequence (P08913 whole entry): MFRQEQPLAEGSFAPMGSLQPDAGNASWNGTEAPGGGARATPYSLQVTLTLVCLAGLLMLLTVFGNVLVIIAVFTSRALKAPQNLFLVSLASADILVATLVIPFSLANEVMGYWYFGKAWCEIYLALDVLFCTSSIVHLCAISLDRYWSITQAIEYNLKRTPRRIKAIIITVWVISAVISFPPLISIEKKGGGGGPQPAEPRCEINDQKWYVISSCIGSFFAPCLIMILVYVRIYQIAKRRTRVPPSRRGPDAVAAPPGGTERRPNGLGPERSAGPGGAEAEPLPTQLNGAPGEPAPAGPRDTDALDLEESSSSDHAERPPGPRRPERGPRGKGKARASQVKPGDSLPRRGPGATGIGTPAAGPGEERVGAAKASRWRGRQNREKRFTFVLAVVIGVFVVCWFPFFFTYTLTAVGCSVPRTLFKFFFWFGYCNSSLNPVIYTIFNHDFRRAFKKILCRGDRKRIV
# [5] = target: Beta-1 adrenergic receptor (Homo sapiens, UniProt P08588); assay type: functional
# Chain of Beta-1 adrenergic receptor (P08588 whole entry): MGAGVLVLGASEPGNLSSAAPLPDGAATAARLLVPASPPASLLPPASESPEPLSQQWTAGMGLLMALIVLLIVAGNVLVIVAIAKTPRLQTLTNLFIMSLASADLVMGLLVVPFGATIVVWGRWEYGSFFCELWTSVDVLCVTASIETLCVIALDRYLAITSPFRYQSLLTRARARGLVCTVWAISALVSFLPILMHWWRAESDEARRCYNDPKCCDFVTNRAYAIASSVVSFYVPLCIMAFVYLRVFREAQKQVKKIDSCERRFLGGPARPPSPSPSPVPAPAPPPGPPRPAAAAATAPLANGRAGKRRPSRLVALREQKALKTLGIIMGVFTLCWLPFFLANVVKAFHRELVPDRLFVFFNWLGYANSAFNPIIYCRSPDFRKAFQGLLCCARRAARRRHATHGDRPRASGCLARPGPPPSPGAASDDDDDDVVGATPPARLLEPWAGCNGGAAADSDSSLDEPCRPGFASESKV
# [6] = target: T4, 5-hydroxytryptamine receptor 2C (Homo sapiens, UniProt P28335)
# T4 sequence (P28335 whole entry): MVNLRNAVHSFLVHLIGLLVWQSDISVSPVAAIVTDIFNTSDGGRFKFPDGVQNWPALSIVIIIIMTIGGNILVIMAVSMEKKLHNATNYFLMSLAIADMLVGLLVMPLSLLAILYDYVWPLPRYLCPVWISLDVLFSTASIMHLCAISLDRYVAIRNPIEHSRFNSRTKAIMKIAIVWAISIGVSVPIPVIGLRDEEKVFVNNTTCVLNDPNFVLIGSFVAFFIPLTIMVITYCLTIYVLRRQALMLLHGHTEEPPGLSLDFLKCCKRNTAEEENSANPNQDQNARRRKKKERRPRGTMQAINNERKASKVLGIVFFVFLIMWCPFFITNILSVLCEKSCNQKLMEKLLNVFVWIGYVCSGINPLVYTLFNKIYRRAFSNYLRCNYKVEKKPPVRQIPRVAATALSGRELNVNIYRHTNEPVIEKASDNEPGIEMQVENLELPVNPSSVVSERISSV
# [7] = target: T5, Alpha-1A adrenergic receptor (Homo sapiens, UniProt P35348); assay type: functional, cell-based
# T5 sequence (P35348 whole entry): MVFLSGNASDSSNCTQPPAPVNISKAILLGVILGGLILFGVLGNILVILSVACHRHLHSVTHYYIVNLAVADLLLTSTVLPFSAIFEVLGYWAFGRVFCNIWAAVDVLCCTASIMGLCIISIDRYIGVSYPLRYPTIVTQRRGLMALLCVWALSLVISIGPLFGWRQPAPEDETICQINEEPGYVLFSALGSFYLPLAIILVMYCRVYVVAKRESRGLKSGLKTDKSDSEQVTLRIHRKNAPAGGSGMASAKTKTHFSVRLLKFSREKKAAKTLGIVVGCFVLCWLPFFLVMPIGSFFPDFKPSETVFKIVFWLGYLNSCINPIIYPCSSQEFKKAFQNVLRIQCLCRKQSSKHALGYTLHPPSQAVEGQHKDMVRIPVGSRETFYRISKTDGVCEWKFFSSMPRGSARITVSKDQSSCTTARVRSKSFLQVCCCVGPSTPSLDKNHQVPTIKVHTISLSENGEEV
# Further: assay procedure not described here.
# Chain of Sodium-dependent noradrenaline transporter (P23975 whole entry): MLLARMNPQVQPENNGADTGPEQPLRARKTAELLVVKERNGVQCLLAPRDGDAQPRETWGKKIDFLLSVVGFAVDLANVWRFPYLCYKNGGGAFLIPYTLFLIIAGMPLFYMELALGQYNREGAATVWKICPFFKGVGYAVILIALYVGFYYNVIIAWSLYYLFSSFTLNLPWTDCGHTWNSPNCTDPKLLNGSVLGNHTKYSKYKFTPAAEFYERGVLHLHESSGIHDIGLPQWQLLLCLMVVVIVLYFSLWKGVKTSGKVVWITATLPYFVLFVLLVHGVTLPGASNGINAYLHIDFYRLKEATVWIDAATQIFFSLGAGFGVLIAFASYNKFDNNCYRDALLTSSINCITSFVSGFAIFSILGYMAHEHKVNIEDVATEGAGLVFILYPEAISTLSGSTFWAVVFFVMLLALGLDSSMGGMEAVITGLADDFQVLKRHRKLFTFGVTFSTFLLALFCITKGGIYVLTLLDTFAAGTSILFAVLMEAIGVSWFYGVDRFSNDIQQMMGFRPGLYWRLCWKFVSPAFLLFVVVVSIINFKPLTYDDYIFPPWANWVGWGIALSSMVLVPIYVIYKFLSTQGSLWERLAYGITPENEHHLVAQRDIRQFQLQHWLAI
structure (smiles),measurement,setting,value
CN(C)CCOC(=O)C(c1ccccc1)C1(O)CCCC1 (stereo not given) [CYCLOPENTOLATE],AC50,[1],> 30 µM
same,AC50,[2],> 10 µM
same,AC50,Thromboxane A2 receptor,> 10 µM
same,AC50,Progesterone receptor,> 10 µM
same,AC50,D(1A) dopamine receptor,> 10 µM
same,AC50,[3],> 10 µM
same,AC50,[4],> 10 µM
same,AC50,[5],> 10 µM
same,AC50,[6],> 30 µM
CCCCCCOC(=O)NC(=N)c1ccc(NCc2nc3cc(C(=O)N(CCC(=O)OCC)c4ccccn4)ccc3n2C)cc1 [DABIGATRAN ETEXILATE],AC50,[1],6.3 µM
same,AC50,[2],> 30 µM
same,AC50,[7],> 30 µM
same,AC50,Progesterone receptor,> 30 µM
same,AC50,D(1A) dopamine receptor,> 30 µM
same,AC50,[3],> 30 µM
same,AC50,[4],> 30 µM
same,AC50,[5],> 30 µM
same,AC50,[6],> 30 µM
CCN1C(=O)NC(c2ccccc2)C1=O (stereo not given) [ETHOTOIN],AC50,[1],> 30 µM
same,AC50,[2],> 30 µM
same,AC50,[7],> 30 µM
same,AC50,Progesterone receptor,> 30 µM
same,AC50,D(1A) dopamine receptor,> 30 µM
same,AC50,[3],> 30 µM
same,AC50,[4],> 30 µM
same,AC50,[5],> 30 µM
same,AC50,[6],> 30 µM
CCC(NC(C)C)C(O)c1ccc(O)c(O)c1 (stereo not given) [ISOETHARINE],AC50,[1],> 30 µM
same,AC50,[2],> 30 µM
same,AC50,Thromboxane A2 receptor,> 30 µM
same,AC50,Progesterone receptor,> 30 µM
same,AC50,D(1A) dopamine receptor,> 30 µM
same,AC50,[3],> 30 µM
same,AC50,[4],> 30 µM
same,AC50,[6],> 30 µM
CCC(=O)O[C@H](CC(=O)O)C[N+](C)(C)C [LEVOCARNITINE PROPIONATE],AC50,[1],> 30 µM
same,AC50,[2],> 30 µM
same,AC50,[7],> 30 µM
same,AC50,Progesterone receptor,> 30 µM
same,AC50,D(1A) dopamine receptor,> 30 µM
same,AC50,[3],> 30 µM
same,AC50,[4],> 30 µM
same,AC50,[5],> 30 µM
same,AC50,[6],> 30 µM
O=C(O)c1nn(Cc2ccc(Cl)cc2Cl)c2ccccc12 [LONIDAMINE],AC50,[1],> 30 µM
same,AC50,[2],> 30 µM
same,AC50,[7],> 30 µM
same,AC50,Progesterone receptor,> 30 µM
same,AC50,D(1A) dopamine receptor,> 30 µM
same,AC50,[3],> 30 µM
same,AC50,[4],> 30 µM
same,AC50,[5],> 30 µM
same,AC50,[6],> 30 µM
COC(=O)c1ccc2c(c1)NC(=O)/C2=C(\Nc1ccc(N(C)C(=O)CN2CCN(C)CC2)cc1)c1ccccc1 [NINTEDANIB],AC50,[1],> 30 µM
same,AC50,[2],> 30 µM
same,AC50,[7],> 30 µM
same,AC50,Progesterone receptor,> 30 µM
same,AC50,D(1A) dopamine receptor,> 30 µM
same,AC50,[3],> 30 µM
same,AC50,[4],> 30 µM
same,AC50,[5],> 30 µM
same,AC50,[6],25 µM
CS(=O)(=O)NC(=O)CCC/C=C\C[C@H]1C(=O)C[C@@H](O)[C@@H]1/C=C/[C@@H](O)COc1ccccc1 [SULPROSTONE],AC50,[1],> 30 µM
same,AC50,[2],> 30 µM
same,AC50,[7],> 30 µM
same,AC50,Progesterone receptor,> 30 µM
same,AC50,D(1A) dopamine receptor,> 30 µM
same,AC50,[3],> 30 µM
same,AC50,[4],> 30 µM
same,AC50,[5],> 30 µM
same,AC50,[6],> 30 µM
CCCCCCCC(=O)CC[C@@H]1[C@@H](C/C=C\CCCC(=O)O)[C@@H](O)C[C@H]1O [UNOPROSTONE],AC50,[1],> 30 µM
same,AC50,[2],> 30 µM
same,AC50,[7],> 30 µM
same,AC50,Progesterone receptor,> 30 µM
same,AC50,D(1A) dopamine receptor,> 30 µM
same,AC50,[3],> 30 µM
same,AC50,[4],> 30 µM
same,AC50,[5],> 30 µM
same,AC50,[6],> 30 µM
